In patent EP1592418B1, “USE OF ENDOCANNABINOID-LIKE COMPOUNDS FOR TREATING CNS DEGENERATIVE DISORDERS” (Research & Innovation S.p.A., priority 2003, dated 2004):

Key:
Jurkat cells = assay: Evaluation of cellular viability by MTT assay; format: cell-based, human; settings: 10 µM, incubated 18-24 hr, MTT, absorbance 570 nm
Experimental: Jurkat, an acute T-lymphoblastic leukemia cell line generated from a person, have been used. Cell culture have been cultured in RPMI-1640 culture medium containing 10% FBS.
Jurkat cells were cultured at 1x10^5 cells/ml in RPMI 1640 medium supplemented with 10% fetal bovine serum (FBS), 2mM L-glutamine and 100 U/ml penicillin + 100 ug/ml streptomycin.
To detect drug effect in vitro, MTT [3-(4,5-dimethylthiazol-2-yl)-2,5-diphenyltetrazolium bromide] assay was used as described (Carmichael J et al., 1987 Cancer Res. 47, 936-42). Briefly, cells were seeded in triplicate on 96-well culture plates at a density of 20000 cells/well. The drugs were added in order to have the final concentration of 10 µM (1 µl of a solution of 10mM in DMSO) and incubated for 18-24 hr. Then MTT (0.5 mg/ml) was added to each well, and plates were incubated for an additional 1 to 3 hr in the dark at 37 °C. After this time the MTT solution was aspirated from the wells and 0.1 ml of DMSO was added. The plates were allowed to stand for 10 min, and then the absorbance was determined in a SpectraCount (Packard) microplate reader at 570 nm. The drug effect was determined by comparing absorbances of treated and untreated cells.

[1] = tested on: reverse passive Arthus reaction, mouse ear pinna; assay: Reverse passive Arthus reaction (RPA) in the mouse ear pinna: oedema and Evans blue extravasation; format: in vivo; settings: mouse ear; for Extravasation / Riduction % (extravasation): 10 mg/Kg i.p.; for Extravasation: Evans blue density at 620 nm in ear homogenate supernatant, Vehicle 0,90±0,06, Naïve 0,04±0,01; for Oedema (mg): 10 mg/Kg intraperitoneally 1 hour before induction, weight increase of 8 mm punch vs contralateral ear, three hours after antigen, Vehicle 49,8 ± 1,2, Naive 23,7 ± 1,2; for Riduction % (extravasation): reduction of extravasation versus Vehicle (0)
Text: The Arthus model (RPA) is a model of immune-complex mediated tissue damage that involves the passive subcutaneous introduction of an antibody and the systemic administration of the corresponding antigen. This inflammatory model has been used to test the in vivo activity of the synthesised molecules.
The reverse passive Arthus reaction is induced, in the mouse ear pinna, by the subcutaneous injection of an excess of IgG anti human albumin followed by i.v. adiministration of the corresponding Ag (i.e. human albumin) together with Evans blue, 2 mg for each mouse, for the evaluation of extravasation.
(§1) The tested molecules were solubilised in DMSO, cremophor and PBS in a ratio of 1:1:18 and administered usually by intraperitonelly at the dosage of 10 mg/Kg 1 hour before the induction of anafilactic reaction. The animals were sacrificed 3 hours after the molecule administration.
The oedema and the extravasations are evaluated tree hours after the i.v. administration of the antigen. The oedema is evaluated as the increase of weight of lesioned ear area dissected by a 8 mm biopsy punch as compared to the contralateral unlesioned auricular tissues. The extravasation is measured determining the Evans blue density at 620 nm in the supernatants deriving from ear homogenates following centrifugation at 10000 x g for 20 min.

[2] = Rectal temperature (central cannabinoid effect, hypothermia); format: in vivo, mouse; settings: for ΔT (°C) rectal temperature: treated animals, Vehicle 0,1 ± 0,2
Experimental: as §1
TABLE 4. Rectal temperature in animals that have been treated with cannabinoids, endocannabinoids or molecules that are object of the present invention. Note a profound hypothermia induced by synthetic cannabinoid such as Win 55,212 or the endocannabinoid Anandamide while no alteration was induced by molecules that are object of the present invention.

[3] = Solubility (physico-chemical properties); format: physicochemical; settings: for solubility: organic solvent or mixture, read-out: solubility in organic solvents

Row | Compound | Growth inhibition (% of control) (Jurkat cells) | Extravasation [1] | Oedema (mg) [1] | Riduction % (extravasation) [1] [%] | ΔT (°C) rectal temperature [2] | solubility ([3]; in DMSO and in chloroform) [µg/mL] | solubility in water [3] | solubility in organic solvents ([3]; in DMSO and in chloroform) | rectal temperature (in words) ([2]; mouse, in vivo)
1 | CCCCCCCCCCCCCCCCCC(N)=O [Starylamide, stearylamide] | 35.2 % of control | 0,31±0,08 | 30,8 ± 0.5 mg | 65.6 | 0,3 ± 0,2 °C |  |  |  | 
2 | CCCCCCCCCCCCCCCC(N)=O [Palmitoylamide] | 33.9 % of control | 0,35±0,05 | 33,2 ± 0.7 mg | 61.2 | 0,2 ± 0,1 °C |  |  |  | 
3 | CCCCCCCCCCCCCCCC(=O)NC1CCC1 [Example 27, N-cyclobutyl-palmitoyl amide] | 29.2 % of control | 0,39±0,11 | 38,5 ± 0.9 mg | 56.7 | 0,1 ± 0,1 °C | > 10000 | scarcely soluble |  | 
4 | CCCCCCCCCCCCCCCC(=O)NCC(C)C [Example 25, N-isobutyl-palmitoyl amide] |  | 0,72±0,07 | 42,4 ± 2.4 mg | 20.0 | 0,3 ± 0,1 °C | > 10000 | scarcely soluble |  | 
5 | CCCCCCCCCCCCCCCCCC(=O)NC1CCCC1 [Example 38, N-cyclopentyl-stearoyl amide] | 31.8 % of control | 0,51±0,14 | 32,3 ± 3.3 mg | 43.4 | 0,2 ± 0,2 °C | > 10000 | scarcely soluble |  | 
6 | CCCCCCCCCCCCCCCC(=O)NC1CCCCC1 [Example 15, N-cyclohexyl-palmitoyl amide] | 63.2 % of control | 0,58±0,16 | 47,5 ± 4,2 mg |  | 0,1 ± 0,1 °C |  | scarcely soluble | >10 mg/ml in DMSO and in chloroform | 
7 | CCCCCCCCCCCCCCCCCC(=O)NCCCCC [Example 34, N- pentyl-stearoyl amide] | 34.2 % of control | 0,62±0,08 | 42,5 ± 3.5 mg | 31.2 | 0,1 ± 0,1 °C | > 10000 | scarcely soluble |  | 
8 | CCCCCCCCCCCCCC(=O)NC(C)C [Example 1, N-isopropyl-myristoyl amide] | 55.0 % of control | 0,57±0,03 | 39,9 ± 2,1 mg | 36.7 | 0,2 ± 0,3 °C | > 10000 | scarcely soluble |  | 
9 | CCCCCCCCCCCCCCCCNC(C)=O [Example 12, N-hexadecyl-acetyl-amide] | 64.8 % of control | 0,72±0,03 | 41,5 ± 1,9 mg | 20.0 | 0,2 ± 0,2 °C | > 10000 | scarcely soluble |  | 
10 | CCCCCCCCCCCCCCCC(=O)NC(C)C [Example 2, N-isopropyl-palmitoyl amide] | 55.6 % of control | 0,37±0,07 | 31,8 ± 1,8 mg | 58.9 | 0,1 ± 0,1 °C | > 10000 | scarcely soluble |  | 
11 | Cc1c(C(=O)c2cccc3ccccc23)c2cccc3c2n1[C@H](CN1CCOCC1)CO3 [WIN 55.212, reference compound] | 79.2 % of control | 0,51 ±0,02 | 33,7 ± 4,6 mg | 43.5 | -5,1 ± 1,3 °C |  |  |  | drastic reduction
